Assay results published in PubChem BioAssay AID1259407 (Chemical Carcinogenesis Research Information System (CCRIS), 2018).
Activity calls are given as the source filed them. How the calls were made is not given here.

System: CCRIS mutagenicity, Ames/micronucleus/aberration tests
Experiment: CCRIS mutagenicity studies
[1] = Test System: AMES SALMONELLA TYPHIMURIUM, Strain/Indicator: TA98, Metabolic Activation: NONE, Method: STANDARD PLATE
[2] = Test System: AMES SALMONELLA TYPHIMURIUM, Strain/Indicator: TA98, Metabolic Activation: RAT, LIVER, S-9, AROCLOR 1254, Method: STANDARD PLATE
[3] = Test System: AMES SALMONELLA TYPHIMURIUM, Strain/Indicator: TA100, Metabolic Activation: NONE, Method: STANDARD PLATE
[4] = Test System: AMES SALMONELLA TYPHIMURIUM, Strain/Indicator: TA100, Metabolic Activation: RAT, LIVER, S-9, AROCLOR 1254, Method: STANDARD PLATE
[5] = Test System: AMES SALMONELLA TYPHIMURIUM, Strain/Indicator: TA1535, Metabolic Activation: NONE, Method: STANDARD PLATE
[6] = Test System: AMES SALMONELLA TYPHIMURIUM, Strain/Indicator: TA1535, Metabolic Activation: RAT, LIVER, S-9, AROCLOR 1254, Method: STANDARD PLATE
[7] = Test System: AMES SALMONELLA TYPHIMURIUM, Strain/Indicator: TA1537, Metabolic Activation: NONE, Method: STANDARD PLATE
[8] = Test System: AMES SALMONELLA TYPHIMURIUM, Strain/Indicator: TA1537, Metabolic Activation: RAT, LIVER, S-9, AROCLOR 1254, Method: STANDARD PLATE
[9] = Test System: AMES SALMONELLA TYPHIMURIUM, Strain/Indicator: TA1538, Metabolic Activation: NONE, Method: STANDARD PLATE
[10] = Test System: AMES SALMONELLA TYPHIMURIUM, Strain/Indicator: TA1538, Metabolic Activation: RAT, LIVER, S-9, AROCLOR 1254, Method: STANDARD PLATE
[11] = Test System: MOUSE LYMPHOMA, Strain/Indicator: L5178Y (TK+/TK-), Metabolic Activation: NONE, Method: SUSPENSION/PLATE

CC1=Nc2ccccc2C1(C)C
mutagenic call (Test System: AMES SALMONELLA TYPHIMURIUM, Strain/Indicator: TA98, Metabolic Activation: HAMSTER, LIVER, S-9, AROCLOR 1254, Method: STANDARD PLATE): inactive; negative | mutagenic call [1]: inactive; negative | mutagenic call [2]: inactive; negative | mutagenic call (Test System: AMES SALMONELLA TYPHIMURIUM, Strain/Indicator: TA100, Metabolic Activation: HAMSTER, LIVER, S-9, AROCLOR 1254, Method: STANDARD PLATE): inactive; negative | mutagenic call [3]: inactive; negative | mutagenic call [4]: inactive; negative | mutagenic call (Test System: AMES SALMONELLA TYPHIMURIUM, Strain/Indicator: TA1535, Metabolic Activation: HAMSTER, LIVER, S-9, AROCLOR 1254, Method: STANDARD PLATE): inactive; negative | mutagenic call [5]: inactive; negative | mutagenic call [6]: inactive; negative | mutagenic call (Test System: AMES SALMONELLA TYPHIMURIUM, Strain/Indicator: TA1537, Metabolic Activation: HAMSTER, LIVER, S-9, AROCLOR 1254, Method: STANDARD PLATE): inactive; negative | mutagenic call [7]: inactive; negative | mutagenic call [8]: inactive; negative | mutagenic call (Test System: AMES SALMONELLA TYPHIMURIUM, Strain/Indicator: TA1538, Metabolic Activation: HAMSTER, LIVER, S-9, AROCLOR 1254, Method: STANDARD PLATE): inactive; negative | mutagenic call [9]: inactive; negative | mutagenic call [10]: inactive; negative | mutagenic call [11]: inactive; positive. reevaluation of results: negative | mutagenic call (Test System: MOUSE LYMPHOMA, Strain/Indicator: L5178Y (TK+/TK-), Metabolic Activation: RAT, LIVER, S-9, AROCLOR 1254, Method: SUSPENSION/PLATE): active; positive. reevaluation of results: inconclusive

O=C(O)[C@H](O)[C@@H](O)C(=O)O
mutagenic call (End Point: IN VIVO MICRONUCLEUS, Test System: BONE MARROW POLYCHROMATIC ERYTHROCYTES, Species: MOUSE, Strain/Sex: DDY/MALE, Route: IP): inactive; negative; authors report chemical name as sodium d-tartrate with cas number of s | mutagenic call (Test System: AMES SALMONELLA TYPHIMURIUM, Strain/Indicator: TA97, Metabolic Activation: NONE, Method: PREINCUBATION): inactive; negative | mutagenic call (Test System: AMES SALMONELLA TYPHIMURIUM, Strain/Indicator: TA97, Metabolic Activation: RAT, LIVER, S-9, AROCLOR 1254, Method: PREINCUBATION): inactive; negative | mutagenic call (Test System: AMES SALMONELLA TYPHIMURIUM, Strain/Indicator: TA98, Metabolic Activation: NONE, Method: PREINCUBATION): inactive; negative | mutagenic call [1]: inactive; negative | mutagenic call (Test System: AMES SALMONELLA TYPHIMURIUM, Strain/Indicator: TA98, Metabolic Activation: RAT LIVER S-9, PHENOBARBITAL AND BETA-NAPHTHOFLAVONE, Method: PREINCUBATION): inactive; negative | mutagenic call [2]: inactive; negative | mutagenic call (Test System: AMES SALMONELLA TYPHIMURIUM, Strain/Indicator: TA100, Metabolic Activation: NONE, Method: PREINCUBATION): inactive; negative | mutagenic call [3]: inactive; negative | mutagenic call (Test System: AMES SALMONELLA TYPHIMURIUM, Strain/Indicator: TA100, Metabolic Activation: RAT LIVER S-9, PHENOBARBITAL AND BETA-NAPHTHOFLAVONE, Method: PREINCUBATION): inactive; negative | mutagenic call [4]: inactive; negative | mutagenic call (Test System: AMES SALMONELLA TYPHIMURIUM, Strain/Indicator: TA102, Metabolic Activation: NONE, Method: PREINCUBATION): inactive; negative | mutagenic call (Test System: AMES SALMONELLA TYPHIMURIUM, Strain/Indicator: TA102, Metabolic Activation: RAT, LIVER, S-9, AROCLOR 1254, Method: PREINCUBATION): inactive; negative | mutagenic call (Test System: AMES SALMONELLA TYPHIMURIUM, Strain/Indicator: TA1535, Metabolic Activation: NONE, Method: PREINCUBATION): inactive; negative | mutagenic call [5]: inactive; negative | mutagenic call (Test System: AMES SALMONELLA TYPHIMURIUM, Strain/Indicator: TA1535, Metabolic Activation: RAT LIVER S-9, PHENOBARBITAL AND BETA-NAPHTHOFLAVONE, Method: PREINCUBATION): inactive; negative | mutagenic call [6]: inactive; negative | mutagenic call (Test System: AMES SALMONELLA TYPHIMURIUM, Strain/Indicator: TA1537, Metabolic Activation: NONE, Method: PREINCUBATION): inactive; negative | mutagenic call [7]: inactive; negative | mutagenic call (Test System: AMES SALMONELLA TYPHIMURIUM, Strain/Indicator: TA1537, Metabolic Activation: RAT LIVER S-9, PHENOBARBITAL AND BETA-NAPHTHOFLAVONE, Method: PREINCUBATION): inactive; negative | mutagenic call [8]: inactive; negative | mutagenic call [9]: inactive; negative | mutagenic call [10]: inactive; negative | mutagenic call (Test System: E. COLI, Strain/Indicator: WP2, Metabolic Activation: NONE, Method: STANDARD PLATE): inactive; negative | mutagenic call (Test System: E. COLI, Strain/Indicator: WP2, Metabolic Activation: RAT, LIVER, S-9, AROCLOR 1254, Method: STANDARD PLATE): inactive; negative | mutagenic call (Test System: E.COLI, Strain/Indicator: WP2UVRA/PKM101, Metabolic Activation: NONE, Method: PREINCUBATION): inactive; negative | mutagenic call (Test System: E.COLI, Strain/Indicator: WP2UVRA/PKM101, Metabolic Activation: RAT LIVER S-9, PHENOBARBITAL AND BETA-NAPHTHOFLAVONE, Method: PREINCUBATION): inactive; negative

Cc1cc(-c2ccc(N/N=C3\C=Cc4c(S(=O)(=O)O)cc(S(=O)(=O)O)c(N)c4C3=O)c(C)c2)ccc1N/N=C1\C=Cc2c(S(=O)(=O)O)cc(S(=O)(=O)O)c(N)c2C1=O
mutagenic call (Test System: AMES SALMONELLA TYPHIMURIUM, Strain/Indicator: TA98, Metabolic Activation: HAMSTER, LIVER, S-9, Method: PREINCUBATION (PRIVAL METHOD)): active; positive | mutagenic call (Test System: AMES SALMONELLA TYPHIMURIUM, Strain/Indicator: TA100, Metabolic Activation: HAMSTER, LIVER, S-9, Method: PREINCUBATION (PRIVAL METHOD)): active; positive | mutagenic call [11]: active; positive. reevaluation of results: equivocal | mutagenic call (Test System: Mouse lymphoma, Strain/Indicator: L5178Y (tk+/tk-), Metabolic Activation: Rat, Liver, S-9, Aroclor 1254, Method: Suspension/plate): inactive; negative

O=C1c2c(O)ccc3c2[C@H](c2ccc(O)c4c2[C@H]3[C@H]2O[C@H]2C4=O)[C@H]2O[C@@H]12
mutagenic call [1]: active; positive | mutagenic call [2]: active; positive | mutagenic call (Test System: AMES SALMONELLA TYPHIMURIUM, Strain/Indicator: TA98, Method: STANDARD PLATE): active; positive | mutagenic call [3]: active; positive | mutagenic call [4]: active; positive | mutagenic call [7]: active; positive | mutagenic call [8]: active; positive
